Laboratory results from publication PMC6271632, “Tryptophan as a Probe to Study the Anticancer Mechanism of Action and Specificity of α-Helical Anticancer Peptides” (Molecules, 2014).

Key:
[1] = Isothermal titration calorimetry with DMPS LUVs; assay type: binding; details: ITC, 25 °C, 10 mM HEPES, 150 mM NaCl pH 7.0
Protocol: To mimic cancer cell and normal cell membranes, desired phospholipid powders were mixtured under certain ratios. Phospholipid mixtures were dissolved in chloroform, dried by N2 flow, and then vacuumed overnight to remove the trace of organic solvents. The lipids were hydrated in 10 mM HEPES and 150 mM NaCl buffer (pH 7.4) and extensively vortexed above the phase-transition temperature of phospholipid, obtaining multilamellar large vesicles (MLVs). To obtain large unilamellar vesicles (LUVs), the MLVs was exposed to five freeze-thaw cycles and pass 21 times through two polycarbonate membrane (0.1 μm) with a mini-extruder above the phase-transition temperature of phospholipids. The phospholipid concentrations were determined by phosphorus analysis.
The affinity of peptides with LUV liposomes were detected by a Nano ITC2G isothermal titration calorimeter (TA Instrument Corp., New Castle, DE, USA) at 25 °C, under HEPES buffer condition (10 mM HEPES, and 150 mM NaCl (pH 7.0)). To avoid air bubbles, peptides and LUV solutions were degassed under vacuum 500 mmHg, for 14 min before using. […]

HeLa cells = assay type: cell-based, Human; details: 1 h
Protocol: The MTT assay has been used to test cytotoxicity of reagents and cell viability. Human cervix carcinoma cells (HeLa cells) were seeded in 96-well plates and incubated with serially 2-fold diluted concentration of different peptides (μM) for 1 h at 37 °C. As a negative control, cells were cultured without addition of the peptides. Thereafter, 20 μL of 5 mg/mL MTT solution in PBS were added to cells and treated for 4 h at 37 °C. The formazan crystals were dissolved by adding 150 μL dimethyl sulfoxide (DMSO) just before spectrometric determination. The absorbance was determined at 490 nm. The results were expressed as IC50, representing the concentration at which cell ability was reduced by 50%. The cytotoxicity assays were repeated in triplicates.

human red blood cells = assay type: cell-based; details: red cells of human, 1 h
Protocol: Peptide samples were serially diluted by PBS in 96-well plates (round bottom) to give a volume of 70 μL sample solution in each well. Human erythrocytes anticoagulated by EDTAK2 were collected by centrifugation (1000 rpm) for 5 min, and washed twice by PBS, then diluted to a concentration of 2% in PBS. 70 μL of 2% erythrocytes were added to each well to give a final concentration of 1% human erythrocytes in each well and plates were incubated at 37 °C for 1 h. The plates were then centrifuged for 10 min at 3,000 rpm and supernatant (90 μL) was transferred to a 96-well plate (flat bottom). The release of hemoglobin was determined by measuring the absorbance of the supernatant at 540 nm. The hemolytic activity was determined as the minimal peptide concentration that caused hemolysis (minimal hemolytic concentration, MHC). Erythrocytes in PBS and distilled water were used as control of 0% and 100% hemolysis, respectively.

[2] = RP-HPLC retention time (relative hydrophobicity); assay type: physicochemical; details: measure of relative hydrophobicity, Zorbax 300 SB-C8 150 × 4.6 mm, linear AB gradient 1% acetonitrile/min, 0.1% TFA, 1 mL/min
Protocol: The relative hydrophobicity of the peptides was determined by measuring their RP-HPLC retention times at 25 °C. The retention times of peptides are highly sensitive to the helicity of peptides upon the interaction between the peptide with the hydrophobic environment of the column matrix. From Table 2, the relative hydrophobicity of peptide analogs is in the order PCW < PMW < PNW. […] It is well known that the chromatography conditions characteristic of RP-HPLC (hydrophobic stationary phase, non-polar eluting solvent) induce helical structures in potentially helical peptides in a manner similar to that of the helix-inducing solvent trifloroethanol (TFE).
Peptide samples were analyzed on a Shimadzu LC-20A HPLC column. Runs were performed on a Zorbax 300 SB-C8 column (150 × 4.6 mm ID, 5 μm particle size, 300Å pore size) from Agilent Technologies, using a linear AB gradient (1% acetonitrile/min) and a flow rate of 1 mL/min, in which eluent A was 0.1% aqueous TFA in water and eluent B was 0.1% TFA in acetonitrile. Temperature profiling analyses during RP-HPLC were performed in 5 °C increments, from 5 °C to 80 °C, as described previously.

[3] = Isothermal titration calorimetry with DMPC LUVs; assay type: binding; details: ITC, 25 °C
Protocol: The interaction of the peptides PNW and PCW with phospholipids was investigated using ITC at 25 °C, in which DMPC or DMPS LUVs were injected into an ITC cell containing peptide solutions of PNW or PCW. Based on the tryptophan fluorescence and quenching experiments, PNW and PCW could cover the trend of peptide-membrane interaction, thus, PMW was not included in the liposome experiments. The interaction of peptides with phospholipid bilayer membrane is entropy-driven. […] It is clear to see that the endothermic heat flow decreased with the increase of the number of injections and the free peptide concentration in the cell decreased simultaneously. The endothermic binding reaction of peptide PNW ceased after 20 injections, when all of peptide in bulk bound to DMPC LUVs (Figure 4A) and the further addition of DMPC LUVs caused dilution heat. However, the endothermic binding reaction of PCW ceased after 22 injections.
To mimic cancer cell and normal cell membranes, desired phospholipid powders were mixtured under certain ratios. Phospholipid mixtures were dissolved in chloroform, dried by N2 flow, and then vacuumed overnight to remove the trace of organic solvents. […] The phospholipid concentrations were determined by phosphorus analysis. […]

[4] = Circular dichroism spectroscopy (helicity); assay type: physicochemical; details: for [θ]222 Benign / [θ]222 SDS in Buffer / [θ]222 50%TFE: CD, 222 nm, 75 μM peptide; for [θ]222 Benign / [θ]222 SDS in Buffer / [θ]222 50%TFE / % Helix SDS in Buffer / % Helix 50%TFE: 25 °C; for [θ]222 Benign: KP buffer (100 mM KCl, 50 mM KH2PO4/K2HPO4, pH 7.4); for [θ]222 SDS in Buffer / % Helix SDS in Buffer: KP buffer with 10 mM SDS; for [θ]222 50%TFE / % Helix 50%TFE: KP buffer with 50% TFE; for % Helix Benign / % Helix SDS in Buffer / % Helix 50%TFE: relative to molar ellipticity of PMW in 50% TFE; for % Helix Benign: KP buffer pH 7.4, 25 °C
Protocol: Peptide secondary structure was measured by CD spectroscopy on a Jasco-810 spectropolarimeter under mild buffer conditions (50 mM KH2PO4/K2HPO4, and 100 mM KCl, pH 7), in 50% TFE and under mild buffer conditions with 10 mM SDS to mimic the hydrophobic environment of the cell membrane (Figure 1 and Table 2). All peptide analogs show negligible helical structures with molar ellipticity values ranging from −5900 to −7800 under mild conditions. In contrast, all peptide analogs were induced into highly helical structures with molar ellipticity values ranging from −24,300 to −31,700 in the hydrophobic environment of 50% TFE and molar ellipticity values ranging from −17,800 to −27,300 in the hydrophobic buffer environment in the presence of 10 mM SDS. […] It is obvious that the tryptophan residue played an important role in stabilizing the helical structure at the N-terminus or in the middle position of the peptide sequence.
Circular dichroism (CD) spectra were acquired with a 0.02 cm path length quartz cuvette on a Jasco J-810 spectropolarimeter (Jasco, Easton, MD, USA) at 25 °C as described previously. The concentration of 75 μM peptides was measured in benign buffer (50 mM KH2PO4/K2HPO4, and 100 mM KCl (pH 7.4)), benign buffer with 50% TFE and benign buffer with 10 mM SDS at 25 °C. The mean residue molar ellipticities were calculated by the equation [θ] = θ/10lCMn and θ is the ellipticity in millidegrees, l is the optical path length of the cuvette in centimeters, CM is the peptide concentration in mole/liter, and n is the number of residues in the peptide. The values of mean residue molar ellipticities of the peptide analogs at 222 nm were used to determine the relative helicity of the peptides.

[5] = RP-HPLC temperature profiling (peptide self-association); assay type: physicochemical; details: RP-HPLC temperature profiling 5 to 80 °C in 5 °C increments; maximal retention time difference normalised to control peptide C; Zorbax 300 SB-C8
Protocol: Figure 2 Peptide self-association ability during RP-HPLC temperature profiling. The retention behavior of the peptides was normalized to that of the random coil peptide C through the expression (tR^t − tR^5 for peptide analogs) minus (tR^t − tR^5 for control peptide C), where tR^t is the retention time at a specific temperature of the anticancer peptides or the random coil peptide, and tR^5 is the retention time at 5 °C.
We utilized the RP-HPLC temperature profiling technique to determine the peptide self-association ability in aqueous solution which we believe is a very important parameter to understand anticancer activity. When the self-association ability of a peptide is too strong in aqueous solution, it could decrease the ability of the peptide to dissociate and penetrate into membranes to kill target cells. […] The curves were normalized with the control peptide C which is a monomeric random coil peptide in both aqueous and hydrophobic media, showing only the general temperature effects. The peptide self-association parameter (PA) is the maximum change in peptide retention time relative to the control peptide C, to quantify the self-association ability of peptides in solution. The details of how to determine peptide self-association parameter were reported previously. […]
Peptide samples were analyzed on a Shimadzu LC-20A HPLC column. […]

Compound | Ka (affinity constant) [1] | IC50 (HeLa cells) [nM] | MHC (minimal hemolytic concentration) (human red blood cells) [µM] | tR (retention time at 25 °C by RP-HPLC) [2] [min] | affinity constant Ka to DMPC LUVs [3] [M⁻¹] | Ka (affinity constant) ([3]; 10 mM HEPES, 150 mM NaCl pH 7.0) | [θ]222 Benign [4] [degree cm^2 dmol^−1] | [θ]222 SDS in Buffer [4] | [θ]222 50%TFE [4] [degree.cm^2.dmol^−1] | % Helix Benign [4] [%] | % Helix SDS in Buffer [4] [%] | % Helix 50%TFE [4] [%] | PA (association parameter) [5] [min]
CC[C@H](C)[C@H](NC(=O)[C@H](CCCCN)NC(C)=O)C(=O)N[C@@H](CCCCN)C(=O)N[C@@H](CO)C(=O)N[C@@H](Cc1ccccc1)C(=O)N[C@@H](CC(C)C)C(=O)N[C@@H](CCCCN)C(=O)N[C@H](C(=O)N[C@@H](Cc1ccccc1)C(=O)N[C@@H](CCCCN)C(=O)N[C@@H](CO)C(=O)N[C@@H](CC(C)C)C(=O)N[C@@H](CCCCN)C(=O)N[C@@H](CCCCN)C(=O)N[C@H](C(=O)N[C@H](C(=O)N[C@@H](CC(C)C)C(=O)N[C@@H](Cc1c[nH]cn1)C(=O)N[C@H](C(=O)N[C@@H](CC(C)C)C(=O)N[C@@H](CC(C)C)C(=O)N[C@@H](CCCCN)C(=O)N[C@@H](C)C(=O)N[C@@H](Cc1c[nH]c2ccccc12)C(=O)N[C@@H](CO)C(=O)N[C@@H](CO)C(N)=O)[C@@H](C)O)C(C)C)[C@@H](C)O)[C@@H](C)O [PCW] | 17.70 [M]^−1× 10^3 | 2330 ± 120 | 10.41 ± 0.01 | 45.6 | 4150 | 4.15 [M]^−1× 10^3 | −5900 | −17,800 degree cm^2 dmol^−1 | −24300 | 18 | 56 | 76 | 4.5
CC[C@H](C)[C@H](NC(=O)[C@H](C)NC(=O)[C@H](CCCCN)NC(=O)[C@H](CC(C)C)NC(=O)[C@H](CC(C)C)NC(=O)[C@@H](NC(=O)[C@H](Cc1c[nH]cn1)NC(=O)[C@H](CC(C)C)NC(=O)[C@@H](NC(=O)[C@@H](NC(=O)[C@H](CCCCN)NC(=O)[C@H](CCCCN)NC(=O)[C@H](Cc1c[nH]c2ccccc12)NC(=O)[C@H](CO)NC(=O)[C@H](CCCCN)NC(=O)[C@H](Cc1ccccc1)NC(=O)[C@@H](NC(=O)[C@H](CCCCN)NC(=O)[C@H](CC(C)C)NC(=O)[C@H](Cc1ccccc1)NC(=O)[C@H](CO)NC(=O)[C@H](CCCCN)NC(=O)[C@@H](NC(=O)[C@H](CCCCN)NC(C)=O)[C@@H](C)CC)[C@@H](C)O)[C@@H](C)O)C(C)C)[C@@H](C)O)C(=O)N[C@@H](CO)C(=O)N[C@@H](CO)C(N)=O [PMW] |  | 2470 ± 180 | 10.41 ± 0.01 | 46.5 |  |  | −7400 | −25,050 degree cm^2 dmol^−1 | −31900 | 23 | 79 | 100 | 5.3
